Experimental data taken from patent publication US10239843B2 (CANCER RESEARCH TECHNOLOGY LIMITED, priority 2014, dated 2019).
Where two headings read alike, the source gives them in different places.

Key:
Human Full Length PARG = Human Full Length PARG (Homo sapiens (Human), UniProt Q86W56); assay: PARG enzyme assay (TR-FRET); format: biochemical
PARG in HeLa cell line = assay: PARG cell assay (PAR chain immunofluorescence after MMS); format: cell-based; conditions: HeLa cells
How it was run: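 Nuclear poly(ADP-ribose) chains in HeLa cells are read by indirect immunofluorescence with a mouse anti-PAR antibody applied overnight at 4° C after fixing and permeabilising. Cells get 1 h of compound, then 50 μg/mL MMS (final) for another hour. PAR persisting at that point reflects PARG inhibition.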

[1] = Homo sapiens, MMS treatment, read-out: PARG Cell IC50
[2] = MMS treatment, read-out: PARG Cell IC50
[3] = read-out: PARG Biochem IC50 Geomean
[4] = MMS 50 μg/mL, read-out: PARG Cell IC50 Geomean
[5] = Homo sapiens, MMS 50 μg/mL, read-out: PARG Cell IC50 Geomean

Chain of Human Full Length PARG (Q86W56 whole entry): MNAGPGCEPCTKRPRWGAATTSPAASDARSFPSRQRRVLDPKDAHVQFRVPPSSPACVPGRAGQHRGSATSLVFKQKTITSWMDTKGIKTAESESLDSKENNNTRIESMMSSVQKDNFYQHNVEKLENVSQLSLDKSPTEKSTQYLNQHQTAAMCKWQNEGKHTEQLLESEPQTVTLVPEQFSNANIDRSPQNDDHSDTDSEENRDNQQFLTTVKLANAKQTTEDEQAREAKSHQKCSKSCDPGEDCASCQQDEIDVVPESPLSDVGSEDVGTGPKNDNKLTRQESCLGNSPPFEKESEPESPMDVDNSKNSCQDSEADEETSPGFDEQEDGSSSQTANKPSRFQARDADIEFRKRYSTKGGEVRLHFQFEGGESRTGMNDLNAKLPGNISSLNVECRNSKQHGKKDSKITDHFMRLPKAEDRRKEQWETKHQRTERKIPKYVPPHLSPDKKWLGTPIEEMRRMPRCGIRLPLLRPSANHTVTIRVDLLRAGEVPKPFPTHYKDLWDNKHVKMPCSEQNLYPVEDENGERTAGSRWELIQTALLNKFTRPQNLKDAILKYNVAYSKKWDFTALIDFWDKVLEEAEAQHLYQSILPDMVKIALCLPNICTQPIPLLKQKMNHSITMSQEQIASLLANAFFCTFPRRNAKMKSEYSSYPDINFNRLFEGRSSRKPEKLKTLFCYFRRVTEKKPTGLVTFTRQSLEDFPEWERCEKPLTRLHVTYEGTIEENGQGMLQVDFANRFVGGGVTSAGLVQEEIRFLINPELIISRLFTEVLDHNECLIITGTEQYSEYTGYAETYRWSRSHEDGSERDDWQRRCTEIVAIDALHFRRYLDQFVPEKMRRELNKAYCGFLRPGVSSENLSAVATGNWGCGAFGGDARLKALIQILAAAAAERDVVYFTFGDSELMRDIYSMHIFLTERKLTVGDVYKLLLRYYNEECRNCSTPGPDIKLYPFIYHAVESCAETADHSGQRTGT

Cc1cc(Cn2c(=O)c3cc(S(=O)(=O)NC4(CF)CC4)ccc3n(Cc3ncnn3C)c2=O)on1 [Example 557, N-[1-(Fluoromethyl)cyclopropyl]-3-[(3-methylisoxazol-5-yl)methyl]-1-[(2-methyl-1,2,4-triazol-3-yl)methyl]-2,4-dioxo-quinazoline-6-sulfonamide]
IC50 (Human Full Length PARG; read-out: PARG Biochem IC50): 368 nM
IC50 (PARG in HeLa cell line; [1]): 857 nM

Cc1cc(Cn2c(=O)[nH]c3ccc(S(=O)(=O)NC4(CF)CC4)cc3c2=O)on1 [Example 516, N-[1-(Fluoromethyl)cyclopropyl]-3-[(3-methylisoxazol-5-yl)methyl]-2,4-dioxo-1H-quinazoline-6-sulfonamide]
IC50 (Human Full Length PARG; read-out: PARG Biochem IC50): 443 nM
IC50 (PARG in HeLa cell line; [1]): 807 nM

Cn1cc(Cn2c(=O)c3cc(S(=O)(=O)NC4(CF)CC4)ccc3n(CCn3cccn3)c2=O)cn1 [Example 560, N-[1-(Fluoromethyl)cyclopropyl]-3-[(1-methylpyrazol-4-yl)methyl]-2,4-dioxo-1-(2-pyrazol-1-ylethyl)quinazoline-6-sulfonamide]
IC50 (Human Full Length PARG; read-out: PARG Biochem IC50): 530 nM
IC50 (PARG in HeLa cell line; [2]): 810 nM

CC1(NS(=O)(=O)c2ccc3[nH]c(=O)c(Br)cc3c2)CC1 [Example 487, 3-Bromo-N-(1-methylcyclopropyl)-2-oxo-1H-quinoline-6-sulfonamide]
IC50 (Human Full Length PARG; read-out: PARG Biochem IC50): 8970 nM
IC50 (PARG in HeLa cell line; [1]): > 30000 nM

Cc1cc(Cn2c(=O)c3cc(S(=O)(=O)NC4(C)CC4)ccc3n(Cc3ccc(F)cc3)c2=O)on1 [Example 199]
IC50 (Human Full Length PARG; [3]): 92 nM
IC50 (PARG in HeLa cell line; [4]): 99 nM

Cn1cc(Cn2c(=O)c3cc(S(=O)(=O)NC4(CF)CC4)ccc3n(Cc3cc[nH]n3)c2=O)cn1 [Example 586, N-[1-(Fluoromethyl)cyclopropyl]-3-[(1-methylpyrazol-4-yl)methyl]-2,4-dioxo-1-(1H-pyrazol-3-ylmethyl)quinazoline-6-sulfonamide]
IC50 (Human Full Length PARG; read-out: PARG Biochem IC50): 82 nM
IC50 (PARG in HeLa cell line; [1]): 530 nM

CCn1cc(Cn2c(=O)c3cc(S(=O)(=O)NC4(C)CC4)ccc3n(C)c2=O)cn1 [Example 181]
IC50 (Human Full Length PARG; [3]): 447 nM
IC50 (PARG in HeLa cell line; [5]): 680 nM

Cc1nc(Cn2c(=O)n(Cc3cnn(C)c3)c(=O)c3cc(S(=O)(=O)NC4(CF)CC4)ccc32)co1 [Example 580, N-[1-(Fluoromethyl)cyclopropyl]-1-[(2-methyloxazol-4-yl)methyl]-3-[(1-methylpyrazol-4-yl)methyl]-2,4-dioxo-quinazoline-6-sulfonamide]
IC50 (Human Full Length PARG; read-out: PARG Biochem IC50): 69 nM
IC50 (PARG in HeLa cell line; [1]): 46 nM

Cn1cc(Cn2c(=O)[nH]c3ccc(S(=O)(=O)NC4(C(F)F)CC4)cc3c2=O)cn1 [Example 456, N-[1-(Difluoromethyl)cyclopropyl]-3-[(1-methylpyrazol-4-yl)methyl]-2,4-dioxo-1H-quinazoline-6-sulfonamide]
IC50 (Human Full Length PARG; read-out: PARG Biochem IC50): 4110 nM
IC50 (PARG in HeLa cell line; [2]): 5600 nM

Cc1cnc(Cn2c(=O)n(Cc3cnn(C)c3)c(=O)c3cc(S(=O)(=O)NC4(CF)CC4)ccc32)cn1 [Example 569, N-[1-(Fluoromethyl)cyclopropyl]-1-[(5-methylpyrazin-2-yl)methyl]-3-[(1-methylpyrazol-4-yl)methyl]-2,4-dioxo-quinazoline-6-sulfonamide]
IC50 (Human Full Length PARG; read-out: PARG Biochem IC50): 130 nM
IC50 (PARG in HeLa cell line; [1]): 128 nM

CCOC(=O)Cn1c(=O)c2cc(S(=O)(=O)NC3(C)CC3)ccc2n(C)c1=O [Example 468, Ethyl 2-[1-methyl-6-[(1-methylcyclopropyl)sulfamoyl]-2,4-dioxo-quinazolin-3-yl]acetate]
IC50 (Human Full Length PARG; read-out: PARG Biochem IC50): 3980 nM
IC50 (PARG in HeLa cell line; [1]): 1120 nM

CC(C)n1c(=O)n(Cc2cnn(C)c2)c(=O)c2cc(S(=O)(=O)NC3(C)CC3)ccc21 [Example 292]
IC50 (Human Full Length PARG; [3]): 341 nM
IC50 (PARG in HeLa cell line; [5]): 221 nM

CN1CCCCC1Cn1c(=O)n(Cc2cnn(C)c2)c(=O)c2cc(S(=O)(=O)NC3(C)CC3)ccc21 (centres unmarked) [Example 238]
IC50 (Human Full Length PARG; [3]): 158 nM
IC50 (PARG in HeLa cell line; [5]): 220 nM

Cn1cc(Cn2c(=O)c3cc(S(=O)(=O)NC4(CF)CC4)ccc3n(CC3CC(F)(F)C3)c2=O)cn1 [Example 444, 1-[(3,3-Difluorocyclobutyl)methyl]-N-[1-(fluoromethyl)cyclopropyl]-3-[(1-methylpyrazol-4-yl)methyl]-2,4-dioxo-quinazoline-6-sulfonamide]
IC50 (Human Full Length PARG; read-out: PARG Biochem IC50): 63 nM
IC50 (PARG in HeLa cell line; [2]): 90 nM

Cn1cc(Cn2c(=O)c3cc(S(=O)(=O)NC4(C(F)F)CC4)ccc3n(CC3CC3)c2=O)cn1 [Example 458, 1-(Cyclopropylmethyl)-N-[1-(difluoromethyl)cyclopropyl]-3-[(1-methylpyrazol-4-yl)methyl]-2,4-dioxo-quinazoline-6-sulfonamide]
IC50 (Human Full Length PARG; read-out: PARG Biochem IC50): 1070 nM
IC50 (PARG in HeLa cell line; [1]): 555 nM

Cc1cc(Cn2c(=O)c3cc(S(=O)(=O)NC4(C)CC4)ccc3n(CC3(F)COC3)c2=O)on1 [Example 350]
IC50 (Human Full Length PARG; [3]): 320 nM
IC50 (PARG in HeLa cell line; [5]): 341 nM

Cn1cc(Cn2c(=O)c3cc(S(=O)(=O)NC4(C)CC4)ccc3n(CCC(N)=O)c2=O)cn1 [Example 273]
IC50 (Human Full Length PARG; [3]): 291 nM
IC50 (PARG in HeLa cell line; [5]): 14500 nM

CCOCCn1c(=O)n(Cc2cnn(C)c2)c(=O)c2cc(S(=O)(=O)NC3(CF)CC3)ccc21 [Example 612]
IC50 (Human Full Length PARG; read-out: PARG Biochem IC50): 194 nM
IC50 (PARG in HeLa cell line; [1]): 178 nM

Cn1cc(Cn2c(=O)c3cc(S(=O)(=O)NC4(CF)CC4)ccc3n(CC3COC3)c2=O)cn1 [Example 445, N-[1-(Fluoromethyl)cyclopropyl]-3-[(1-methylpyrazol-4-yl)methyl]-1-(oxetan-3-ylmethyl)-2,4-dioxo-quinazoline-6-sulfonamide]
IC50 (Human Full Length PARG; read-out: PARG Biochem IC50): 102 nM
IC50 (PARG in HeLa cell line; [1]): 417 nM

CCCn1c(=O)n(Cc2cnn(C)c2)c(=O)c2cc(S(=O)(=O)NC3(CF)CC3)ccc21 [Example 597, N-[1-(Fluoromethyl)cyclopropyl]-3-[(1-methylpyrazol-4-yl)methyl]-2,4-dioxo-1-propyl-quinazoline-6-sulfonamide]
IC50 (Human Full Length PARG; read-out: PARG Biochem IC50): 100 nM
IC50 (PARG in HeLa cell line; [1]): 86 nM

Cn1cc(Cn2c(=O)c3cc(S(=O)(=O)NC4(C)CC4)ccc3n(CC3CCCCO3)c2=O)cn1 (centres unmarked) [Example 257]
IC50 (Human Full Length PARG; [3]): 103 nM
IC50 (PARG in HeLa cell line; [5]): 98 nM

Cc1cc(Cn2c(=O)c3cc(S(=O)(=O)NC4(C)CC4)ccc3n(CC3CCC3)c2=O)on1 [Example 288]
IC50 (Human Full Length PARG; [3]): 175 nM
IC50 (PARG in HeLa cell line; [4]): 79 nM

Cc1nc(C)c(Cn2c(=O)n(C)c(=O)c3cc(S(=O)(=O)NC4CC4)ccc32)s1 [Example 201]
IC50 (Human Full Length PARG; [3]): 190 nM
IC50 (PARG in HeLa cell line; [5]): 224 nM

Cc1cc(Cn2c(=O)c3cc(S(=O)(=O)NC4(C)CC4)ccc3n(CC3(C)CCC3)c2=O)on1 [Example 467, 1-[(1-Methylcyclobutyl)methyl]-N-(1-methylcyclopropyl)-3-[(3-methylisoxazol-5-yl)methyl]-2,4-dioxo-quinazoline-6-sulfonamide]
IC50 (Human Full Length PARG; read-out: PARG Biochem IC50): 361 nM
IC50 (PARG in HeLa cell line; [1]): 214 nM

Cn1c(=O)n(Cc2cnn(CC#N)c2)c(=O)c2cc(S(=O)(=O)NC3(C)CC3)ccc21 [Example 217]
IC50 (Human Full Length PARG; [3]): 365 nM
IC50 (PARG in HeLa cell line; [5]): 529 nM

Cc1cc(Cn2c(=O)c3cc(S(=O)(=O)NC4(C)CC4)ccc3n(CC3CC3)c2=O)on1 [Example 197]
IC50 (Human Full Length PARG; [3]): 55 nM
IC50 (PARG in HeLa cell line; [5]): 49 nM

COC(=O)c1cc(S(=O)(=O)NC2(C)CC2)cc2c(=O)n(Cc3cnn(C)c3)c(=O)[nH]c12 [Example 448, Methyl 6-[(1-methylcyclopropyl)sulfamoyl]-3-[(1-methylpyrazol-4-yl)methyl]-2,4-dioxo-1H-quinazoline-8-carboxylate]
IC50 (Human Full Length PARG; read-out: PARG Biochem IC50): 424 nM
IC50 (PARG in HeLa cell line; [2]): 329 nM

Cc1cc(Cn2c(=O)c3cc(S(=O)(=O)NC4(C)CC4)ccc3n(CC3CCOC3)c2=O)on1 (centres unmarked) [Example 268]
IC50 (Human Full Length PARG; [3]): 111 nM
IC50 (PARG in HeLa cell line; [5]): 217 nM

Cc1cc(Cn2c(=O)c3cc(S(=O)(=O)NC4(CF)CC4)ccc3n(C)c2=O)on1 [Example 514, N-[1-(Fluoromethyl)cyclopropyl]-1-methyl-3-[(3-methylisoxazol-5-yl)methyl]-2,4-dioxo-quinazoline-6-sulfonamide]
IC50 (Human Full Length PARG; read-out: PARG Biochem IC50): 384 nM
IC50 (PARG in HeLa cell line; [1]): 178 nM

Cc1cc(Cn2c(=O)c3cc(S(=O)(=O)NC4(C)CC4)ccc3n(CC3CC3(F)F)c2=O)on1 (centres unmarked) [Example 364]
IC50 (Human Full Length PARG; [3]): 408 nM
IC50 (PARG in HeLa cell line; [5]): 106 nM

Cc1cc(Cn2c(=O)c3cc(S(=O)(=O)NC4(CF)CC4)ccc3n(Cc3nc(C)nn3C)c2=O)on1 [Example 554, 1-[(2,5-Dimethyl-1,2,4-triazol-3-yl)methyl]-N-[1-(fluoromethyl)cyclopropyl]-3-[(3-methylisoxazol-5-yl)methyl]-2,4-dioxo-quinazoline-6-sulfonamide]
IC50 (Human Full Length PARG; read-out: PARG Biochem IC50): 499 nM
IC50 (PARG in HeLa cell line; [1]): 604 nM

Cn1cc(Cn2c(=O)c3cc(S(=O)(=O)NC4(C)CC4)ccc3n(CCN3CCCC3)c2=O)cn1 [Example 272]
IC50 (Human Full Length PARG; [3]): 317 nM
IC50 (PARG in HeLa cell line; [5]): 467 nM

Cn1c(=O)c2cc(S(=O)(=O)NC3(C)CC3)ccc2n(Cc2ccccc2C#N)c1=O [Example 68]
IC50 (Human Full Length PARG; [3]): 324 nM
IC50 (PARG in HeLa cell line; [5]): 306 nM

C#CCn1c(=O)n(CC#N)c(=O)c2cc(S(=O)(=O)NC3(C)CC3)ccc21 [Example 194]
IC50 (Human Full Length PARG; [3]): 245 nM
IC50 (PARG in HeLa cell line; [4]): 273 nM

Cc1ncc(Cn2c(=O)c3cc(S(=O)(=O)NC4(C)CC4)ccc3n(Cc3ccc(F)cc3)c2=O)s1 [Example 176]
IC50 (Human Full Length PARG; [3]): 89 nM
IC50 (PARG in HeLa cell line; [5]): 85 nM

CON(C)C(=O)c1cc(S(=O)(=O)NC2(C)CC2)cc2c(=O)n(Cc3cnn(C)c3)c(=O)[nH]c12 [Example 451, N-Methoxy-N-methyl-6-[(1-methylcyclopropyl)sulfamoyl]-3-[(1-methylpyrazol-4-yl)methyl]-2,4-dioxo-1H-quinazoline-8-carboxamide]
IC50 (Human Full Length PARG; read-out: PARG Biochem IC50): 3850 nM
IC50 (PARG in HeLa cell line; [1]): 4500 nM

CCN(CC)CCn1c(=O)n(Cc2cnn(C)c2)c(=O)c2cc(S(=O)(=O)NC3(CF)CC3)ccc21 [Example 611, 1-[2-(Diethylamino)ethyl]-N-[1-(fluoromethyl)cyclopropyl]-3-[(1-methylpyrazol-4-yl)methyl]-2,4-dioxo-quinazoline-6-sulfonamide]
IC50 (Human Full Length PARG; read-out: PARG Biochem IC50): 113 nM
IC50 (PARG in HeLa cell line; [1]): 249 nM
